We go through seven molecules from patent US20080293812A1, “Use of pamoic acid or one of its derivatives, or one of its analogues, for the preparation of a medicament for the treatment of diseases characterised by deposits of amyloid aggregates” (Sigma-Tau Industrie Farmaceutiche Riunite S. P.A.,, priority 2000, published 2008).

Data set [1] relates to primary cortical neuronal cultures. As to the kind of experiment: Inhibition of neurotoxicity induced by β-amyloid25-35 in primary neuronal cultures. It is filed as cell-based, rat. As for the experimental part:
To verify the potential neuroprotective activity of sodium pamoate, primary cortical neuronal cultures obtained by microdissection of rat foetal brain at day 16-18 of gestation were used. The cerebral tissue was cultivated in the presence of foetal calf serum and the glial proliferation was inhibited by adding to the incubation medium the antimitotic agent cytosine arabinoside on days 3 and 5 (Andreoni et al. 1997 Exp. Neurology 148:281-287). The cell cultures were exposed to βA25-35 peptide for 5-7 days in the presence or absence of sodium pamoate. The neuroprotective action was evaluated in conditions of neurotoxicity induced by kainic acid to verify the specificity of action of sodium pamoate and its effective antiaggregant activity against the neurotoxic agent. The ability of sodium pamoate to protect the cells against degeneration was also evaluated in neuronal cells cultured in the absence of foetal calf serum in the culture medium. In this case, 24 hours after seeding, the medium was replaced with one without serum containing glutamine, insulin, transferrin, putrescin, progesterone, sodium selenite and Hepes.
Primary cultures of neurons of the […] were taken from the rat foetal brain on days 16-18 of gestation and cultured in foetal calf serum. On incubation days 3 and 5, glial proliferation was inhibited using cytosine arabinoside as an antimitotic agent.
The cultures were exposed to βA25-35 peptide at concentrations of 25 and 50 μM from the day following seeding for 5 to 7 days.
βA25-35 peptide was added to the cultures together with sodium pamoate which had equimolar concentrations or concentrations lower than those of the peptide itself.
The protection against neurotoxicity was evaluated using the colorimetric method and densitometric analysis with an image analyser.

The target in data set [2] is T1, βA1-42 peptide (Homo sapiens, UniProt P05067).
T1 construct: βA1-42 peptide (1 mg/ml) was dissolved in H2O/CH3CN (1:1)
T1 sequence (P05067 672-713): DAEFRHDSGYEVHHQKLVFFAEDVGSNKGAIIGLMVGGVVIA
The data set is described as follows: βA1-42 polymerization, Thioflavina T binding assay in 96 well plates. Particulars: concentrations between 0.8 and 100 μM, overnight at 37° C.; read-out: DE50 (the source's name). It is filed as biochemical. As for the experimental part: The ST1641, ST1722, ST1859, ST1745, ST1800, ST1913 capability to counteract βA1-42 polymerization was evaluated using the Thioflavina “T” binding assay with the following procedure (M. A. Findeis, S. M. Molineaux; Methods in Enzymology 309, 487-488 (1999)): βA1-42 peptide (1 mg/ml) was dissolved in H2O/CH3CN (1:1), lyophilized, solubilized in DMSO+PBS and incubated at 37° C. for 8 days. The peptide was then sonicated and dissolved in PBS (1:5). 96 well plates were prepared with a solution of βA1-42 (40 μl/well) and ST testing compounds (50 μl/well, at concentrations between 0.8 and 100 μM). 50 μl of not aggregated βA1-42 was added after 15 minutes to each well and the plates were incubated overnight at 37° C. with agitation. 200 μl of a reaction mixture containing Thioflavina “T” (10 μM) and Na2HPO4×2H2O (50 μM) solution (pH 6.5) was then added to each well. The fluorescence was measured at 450 nm of excitation and 482 nm of emission with a 96 well fluorimetric plate reader within 60 seconds. At this experimental conditions fluorimetric measures were related to the amount of βA1-42 polymerized peptide.

A further data set concerns the target T2, β-amyloid25-35 peptide (Homo sapiens, UniProt P05067).
T2 construct: aqueous solution of βA25-35 2 mM (cat. Bachem n° H-1192.0001); purchased Bachem H-1192.0001
As to the kind of experiment: Antiaggregant effect on β-amyloid25-35 peptide (centrifugation, settled solid). Type of data set: biochemical. Particulars: sodium pamoate 1 mM, βA25-35 1 mM, phosphate buffer 100 mM pH 5, 24 hours ambient temperature. The protocol:
To 250 μl of a solution consisting of sodium pamoate 2 mM and phosphate buffer 200 mM pH 5 were added 250 μl of an aqueous solution of βA25-35 2 mM (cat. Bachem n° H-1192.0001). 500 μl of a solution of sodium pamoate 1 mM, βA25-35 1 mM and phosphate buffer 100 mM pH 5 were thus obtained. The same process was carried out for the control sample where sodium pamoate was not present. After 24 hours at ambient temperature, the sample and control were centrifuged at 12000 rpm for 20 minutes, separating the settled solids from the supernatants. To the settled solids were added 250 μL of water. After 3 hours at ambient temperature the samples were centrifuged again at a 12000 rpm for 20 minutes.

The test system of another data set is cerebellar granules. The data set is described as follows: Apoptosis of cerebellar granules induced by K+ deprivation. Type of data set: cell-based, rat. Particulars: concentration of 10 μM. The protocol:
Granules isolated from cerebellum of 8-day-old rats are differentiated biochemically and morphologically in approximately one week, becoming morphologically mature and with a glutamatergic interneuron phenotype (Gallo et al. 1982 PNAS 79:7919-7923). On depriving the culture medium of serum and reducing the extracellular concentration of potassium ions (25 mM) to the extent of bringing it down to a non-depolarising condition (5 mM), cell death by apoptosis is obtained in approximately 24 hours.
This experimental model made it possible to obtain a “self-fuelling” βA production system where neuronal apoptosis of the cerebellar granules brought about changes in the processing of the amyloid precursor APP, of such a nature as to favour the course of amyloidogenic metabolism. The increase in βA levels, in turn, favours programmed cell death. In this experimental setting, the potential efficacy of the study substances was measured in terms of cell survival at given times (24, 48 and 72 hours) after the reduction of KCl in the medium.
In primary cultures of cerebellar granules of 8-day-old rats, maintained in a culture medium containing KCl 25 mM, the cells were labelled with ^35S-methionine after 6 days in culture. […]
The protection against toxicity was assessed in terms of cell viability at 24, 48 and 72 hours.

For data set [3], the target named is T1, βA1-42 peptide. The data set is described as follows: Antiaggregant effect on β-amyloid1-42 peptide, thioflavin T binding, 5 days incubation. Type of data set: biochemical. As for the experimental part: The antiaggregant effects of sodium pamoate on βA1-42 peptide were evaluated by measuring thioflavin T binding according to the following procedure. βA1-42 peptide (cat. Bachem n° H-1368.0500) at a concentration of 0.22 mM was incubated at 37° C. in Tris buffer 100 mM pH 7.4, alone or in the presence of sodium pamoate, for 5 days. The molar ratios of the peptide to sodium pamoate were generally 1:8, 1:4 and 1:2. The solution was centrifuged at 13000 rpm for 5 minutes and the supernatant was eliminated. The precipitate was washed with 500 μl of H2O and centrifuged at 13000 rpm for 5 minutes. In the precipitate, the aggregate in fibril form was detected with 600 μl of thioflavin T (ThT) 2 μM dissolved in glycine-NaOH buffer 50 mM, pH 9.4. After 5 minutes' incubation 500 μl of samples were transferred to a quartz cuvette and the fluorimetric signal was determined at 420 nm excitation and 480 nm emission in a spectrophotofluorimeter. In these conditions the fluorimetric signal is proportional to the amount of amyloid aggregate (Le Vine, Methods in Enzymology, vol. 309 pp 274-284).

The target of data set [4] is T3, previously aggregated βA1-42 peptide (Homo sapiens, UniProt P05067).
T3 construct: βA1-42 peptide (cat. Bachem n° H-1368.0500) at a concentration of 0.22 mM; purchased Bachem H-1368.0500
T3 sequence (P05067 672-713): as above
As to the kind of experiment: Dissolution of aggregates of preformed β-amyloid1-42 in fibril form, thioflavin T binding. Type of data set: biochemical. Particulars: peptide:pamoate ratio 1:8. As for the experimental part:
This experiment was conducted in order to assess the antiaggregant capacity of sodium pamoate on previously aggregated βA1-42 peptide, according to the following procedure. βA1-42 peptide was left to aggregate for 48 hours at 37° C. in the conditions described in Example 6. Sodium pamoate was added (peptide:pamoate ratio 1:8).

The target in data set [5] is T1, βA1-42 peptide. The data set is described as follows: Resistance of β-amyloid1-42 peptide to trypsin digestion, HPLC. Type of data set: biochemical. As for the experimental part: βA1-42 peptide was dissolved with 15 μl of NaOH 0.1 M. The solution was brought to pH 7.4 with 15 μl of TRIS buffer 100 mM to which were added 30 μl of buffer alone or 30 μl of buffer solution containing sodium pamoate. The final concentration of βA1-42 peptide was 0.22 mM, and that of sodium pamoate ranged from 0.055 to 1.76 mM, thus with a βA1-42 peptide:sodium pamoate ratio ranging from 4:1 to 1:8. The samples thus prepared were incubated at 37° C. for 5 days; in these conditions βA1-42 peptide formed aggregates in the form of fibrils modifying its structure from random-coil to β-sheet (Zagorski M. G. et al. 1999 “Methodological and Chemical Factors Affecting Amyloid β Peptide Amyloidogenicity” Methods in Enzymology 309:189-204). After 5 days' incubation, 24 μg of trypsin (Merck) were added to each sample, stirred and centrifuged for 1 minute at 13000 rpm; the samples were then left to incubate at 37° C. for 1 hour. When this period had elapsed, the mixture was centrifuged for 5 minutes at 13000 rpm, eliminating 50 μl of supernatant, and the precipitate was dissolved with 40 μl of HCOOH and 10 μl of H2O containing 0.1% of trifluoroacetic acid (TFA). At this point the sample was ready for quantitative HPLC analysis. The HPLC profile of the sample incubated with sodium pamoate was compared with that obtained with peptide alone, thereby quantifying the βA1-42 peptide.

Data set [6] in a line: Capability to cross in vivo the blood brain barrier, 14C-labelled compound. On the set-up: species or system rats. Particulars: i.v. As for the experimental part:
ST1859 inhibited “in vitro” the beta amyloid aggregation and to test its permeability through the intact blood-brain barrier, ST1859, labelled with ^14C(S. A. 50 μCi/mM), was injected i.v. into normal rats at the dose of 18 μCi/rat. The brain and blood were up-taken 30′ after the injection, the blood was then centrifuged (3000 RPM×15 min) and serum obtained was diluted 1:20 with water while brain tissue was homogenized 1:20 w/v in water. To each sample was then added 4 ml of scintillation liquid for aqueous samples The amount of radioactivity was counted with an automatic β-counter (Packard 4600). Data reported in DPM (table 1) were normalized vs. weight or volume of each sample.

[7] abbreviates: 18 μCi/rat, 30′ after the injection, mean.

pEC50: −log10 of the molar value.

“βA25-35: β-amyloid25-35 peptide (cat. Bachem n° H-1192.0001), used as neurotoxic agent (GSNKGAIIGLM; Amyloid-beta protein 42; UniProt P05067 696-706, looked up, fragment) [reference compound]”: the percentage survival in data set [1] (βA25-35 50 μM alone) is given as 16 % S.
As for `CC(=O)O[C@H](CC(=O)Oc1c(C(=O)O)cc2ccccc2c1Cc1c(O)c(C(=O)O)cc2ccccc12)C[N+](C)(C)C` [ST1722, (2R)-2-(acetyloxy)-4-({3-carboxy-1-[(3-carboxy-2-hydroxy-1-naphthyl)methyl]-2-naphthyl}oxy)-N,N,N-trimethyl-4-oxo-1-butanaminium chloride], the pEC50 at βA1-42 peptide [2] was 4.04.
Regarding `O=C(O)c1cc2ccccc2c(Cc2c([O-])c(C(=O)O)cc3ccccc23)c1[O-].[Na+].[Na+]` [ST1641, sodium pamoate], the “inhibition of aggregation of βA25-35 peptide in fibrils” value against β-amyloid25-35 peptide was “complete inhibition”. Also, the “protection against the toxicity induced by βA25-35” value in data set [1] is listed as “complete protection”. The percentage survival worked out at 100 % S in data set [1] (Sodium pamoate 25 μM + βA25-35 50 μM) and 88 % S in data set [1] (Sodium pamoate 25 μM alone). Besides, the “protection against the damage induced by amyloid forming during the apoptotic process” value in the data set with cerebellar granules worked out at 89%. The “efficacy in reducing thioflavin T binding as a function of incubation time” value on βA1-42 peptide [3] (from 1 to 5 days' incubation) is “progressive increase in efficacy”. Further, the “reduction in the formation of βA1-42 aggregates in the form of fibrils as compared to controls” value on βA1-42 peptide [3] (βA1-42 0.22 mM, 37° C., 5 days, peptide:pamoate 1:8, 1:4, 1:2, dose-dependent) is on record as at most 70%. In addition, at βA1-42 peptide [2], the pEC50 was 4.42. In data set [4] (preformed aggregates), the “activity in reducing thioflavin T binding” value was “extremely active”. Moreover, the “reduction in fluorescence as compared to controls” value in data set [4] (βA1-42 aggregated 48 hours at 37° C.) came to 70%. Besides, the “increase of trypsin hydrolysis of βA1-42” value at βA1-42 peptide [5] (highest dose, peptide:pamoate ratio 1:8) is on record as “more than 50%”; at βA1-42 peptide [5] (lowest dose, peptide:pamoate ratio 1:4), “more than 40%”.
`Oc1ccc2ccccc2c1Cc1c(O)ccc2ccccc12` [ST1859, 1,1′-methylene-di(2-naphthol)]: the pEC50 on βA1-42 peptide [2] is 5.27. Besides, in data set [6] (setting [7]), the Brain radioactivity is reported as 35.643 DPM/g, the Serum radioactivity is on record as 29.776 DPM/ml and the Serum/Brain is recorded as 0.833. Also, in data set [6] (normal rats), the “ability to cross the blood brain barrier” value was “able to cross the blood brain barrier”.
Consider `NCC(=O)Oc1ccc2ccccc2c1Cc1c(O)ccc2ccccc12` [ST1913, 2-({1-[(2-hydroxy-1-naphthyl)methyl]-2-naphthyl}oxy)-2-oxoethanaminium chloride], for which the pEC50 on βA1-42 peptide [2] was 5.11.
On the same count and under the same terms, the figure for `CC(=O)O[C@H](CC(=O)Oc1ccc2ccccc2c1Cc1c(O)ccc2ccccc12)C[N+](C)(C)C` [ST1745, (2R)-2-(acetyloxy)-4-({1-[(2-hydroxy-1-naphthyl)methyl]-2-naphthyl}oxy)-N,N,N-trimethyl-4-oxo-1-butanaminium chloride] is 5.10.
The same measure, in the same setting: under `CCN(CC)CCOC(=O)c1cc2ccccc2c(Cc2c(O)c(C(=O)OCCN(CC)CC)cc3ccccc23)c1O` [ST1800, 2-({4-[(3-{[2-(diethylammonio)ethoxy]carbonyl}-2-hydroxy-1-naphthyl)methyl]-3-hydroxy-2-naphthoyl}oxy)-N,N-diethylethanaminium dichloride] stands below 4.30.
